The values below come from patent US10295528B2, “Method of screening ATP11C or CDC50A inhibitor” (KYOTO UNIVERSITY, priority 2014, dated 2019).

In one assay the test system is ATP11C. Put plainly: FasL-induced ATP11C cleavage in W3 cells, Western blotting with anti-mATP11C. Format: cell-based, mouse. As to conditions: 1 h FasL, 20 μM QVD-Oph, membrane fractions. The method, then: FIG. 3D Cleavage of ATP11C by caspase (D). W3 and ATP11C^ED22 were incubated for 1 h with FasL in the presence or absence of 20 μM QVD-Oph. Membrane fractions were analyzed by Western blotting with anti-mATP11C or anti-mFas. Upper and middle panels: the blot with anti-mATP11C, where exposure time is longer in the middle panel.
Cells or membrane fractions were lysed in RIPA buffer ([…] (pH 8.0) containing 1% MP-40, 0.1% SDS, 0.5% sodium deoxycholate, 150 mM NaCl, and a cocktail of protease inhibitors (cOmplete, Mini, EDTA-free, Roche Diagnostics)). After removing insoluble materials by centrifugation, the lysates were mixed […] with 3×SDS sample buffer (200 mM Tris-HCl [pH 6.8], 10% SDS, 25% glycerol, 15% β-mercaptoethanol, and 0.05% bromophenol blue), and incubated at room temperature for 20 min. Proteins cere separated by SDS-PAGE using a 7.5% or 10-20% gradient gel (Bio Graft), and transferred to a PVDF membrane (Millipore). The membranes were probed with mouse anti-GFP mAb, rabbit anti-active caspase-3 mAb, rabbit anti-hATP11C Ab, rabbit anti-α-tubulin mAb, or rat anti-mFas mAb, followed by incubation with HRP-conjugated goat anti-mouse Igs, goat anti-rabbit Igs or rabbit anti-rat Igs (Dako). The peroxidase activity was detected by the Western Lightning-ECL system (PerkinElmer).
Background: A western blot detects proteins with antibodies after separation by electrophoresis.

In another assay the test system is ATP11C^GT. Briefly: Internalization of NBD lipids (flippase activity), flow cytometry. Format: cell-based, human. As to conditions: KBM7-derived ATP11C^GT cells, 20 min with NBD-PS with or without vanadate, MFI. The method, then: FIG. 2D Requirement of ATP11C and CDC50A for flippase activity (D), KBM7, ATP11C^GT, and CDC50A^GT were incubated for 20 min with NBD-PS with or without an ATPase inhibitor vanadate, and analyzed by flow cytometry. MFI was plotted (n=3).
Cells (2×10^6) were incubated with 1.5 μM NBD-PS, NBD-PE, or NBD-PC at 25° C. for 15-20 min in 600 μl of HBSS containing 1 mM MgCl2 and 2.5 mM CaCl2. After incubation, the cells were collected by centrifugation, resuspended in HBSS containing 5 mg/ml fatty-acid-free BSA, and analyzed by a FACSAria II. To determine the scramblase activity, 1.5×10^6 cells were incubated at 25° C. for 4 min with 0.5 μM NBD-PC.
For orientation: A flow cytometer gives signals particle by particle.

For the next assay, the system named is CDC50A^ED29. Briefly: In vitro phagocytosis assay: thio-pMac engulfment of pHrodo-labeled cells. Format: cell-based, mouse. As to conditions: 2 h incubation, 4 μg/ml MFG-E8 D89E. The protocol:
FIG. 6A Engulfment of PtdSer-exposing viable cells (A). Thio-pMacs were incubated for 2 h with pHrodo-labeled W3-Ildm, CDC50A^ED29, its hCDC50A transformant (CDC50A^ED29-hCDC50A), or W3-D430G-L in the presence or absence of 4 μg/ml of MFG-E8 D89E, and analyzed by FACS.
To prepare thioglycollate-elicited peritoneal macrophages (thio-pMacs), female C57BL/6J mice at 7-12 weeks of age were injected intraperitonealiy with 60 mg of thioglycollate (Sigma-Aldrich), and peritoneal macrophages were collected 4 days later. Phagocytosis was assayed by following the transport of pHrodo-stained prey into macrophage lysosomes (50, 51). In brief, 5×10^5 thio-pMacs were grown overnight in 12-well plates (Corning). Growing or apoptotic cells (2.0×10^7) were washed with PBS and incubated with 40 ng/ml pHrodo for 10 min at room temperature. After stopping the reaction with 2 ml FCS, the cells were washed with IMDM containing 10% FCS, added to the macrophages in the medium containing 1% methyl cellulose (Sigma-Aldrich), spun at 500×g for 4 min at room temperature using a swinging rotor, and incubated at 37° C. The macrophages were detached from the plate by treatment with 0.25% trypsin, stained with APC-conjugated rat anti-mouse Mac1, suspended in 20 mM CHES-NaOH buffer (pH 9.0) containing 150 mM NaCl, 2% PCS, and 200 nM Sytox blue, and analyzed by flow cytometry using the FACSCanto II. […]

Turning to `CC(C)[C@H](NC(=O)c1ccc2ccccc2n1)C(=O)N[C@@H](CC(=O)O)C(=O)COc1c(F)cccc1F` [Q-VD-OPh], the “FasL-caused shift in ATP11C's mobility (from 120 to 50 kDa)” value with ATP11C was “prevented”.

With `[O]=[V]([O-])([O-])[O-]` [orthovanadate], the “incorporation of phospholipids in ATP11C^GT” value in the assay with ATP11C^GT is given as “inhibited”.

B1: D89E mutant of MFG-E8: D89E mutant of MFG-E8, which masks PtdSer; produced in HEK293T cells (protein, UniProt P21956 23-463, looked up, variant D89E)
Lactadherin: ASGDFCDSSLCLNGGTCLTGQDNDIYCLCPEGFTGLVCNETERGPCSPNPCYNDAKCLVTLDTQRGEIFTEYICQCPVGYSGIHCETETNYYNLDGEYMFTTAVPNTAVPTPAPTPDLSNNLASRCSTQLGMEGGAIADSQISASSVYMGFMGLQRWGPELARLYRTGIVNAWTASNYDSKPWIQVNLLRKMRVSGVMTQGASRAGRAEYLKTFKVAYSLDGRKFEFIQDESGGDKEFLGNLDNNSLKVNMFNPTLEAQYIKLYPVSCHRGCTLRFELLGCELHGCSEPLGLKNNTIPDSQMSASSSYKTWNLRAFGWYPHLGRLDNQGKINAWTAQSNSAKEWLQVDLGTQRQVTGIITQGARDFGHIQYVASYKVAHSDDGVQWTVYEEQGSSKVFQGNLDNNSHKKNIFEKPFMARYVRVLPVSWHNRITLRLELLGC
Turning to B1, the “engulfment of CDC50A^ED29 by thio-pMacs” value with CDC50A^ED29 was “inhibited”.
